ChEMBL document CHEMBL4411307, “N,N'-diaryl-bishydrazones in a biphenyl platform: Broad spectrum antifungal agents” (Eur J Med Chem, 2019)
Converted amounts (≈) assume the structure as drawn. The source made the active and inactive calls. The rule behind the calls is not given here.

Tests used:
[1] = Selectivity index, ratio of compound concentration showing <20 to <30% hemolysis in mouse RBC to MIC for fluconazole/ITC-resistant Candida albicans ATCC MYA-1237; format: toxicity; details: mouse red blood cells (RBC), read-out: Selectivity Index
[2] = tested on: Candida albicans; test: Antifungal activity against fluconazole/ITC-resistant Candida albicans ATCC 90819 measured after 48 hrs by CLSI M27-A3 protocol based method; format: functional; details: ATCC 90819, 48 h
[3] = Selectivity index, ratio of CC50 for human A549 cells to MIC for Candida parapsilosis ATCC 22019; format: toxicity; details: read-out: Selectivity Index
[4] = Selectivity index, ratio of CC50 for human A549 cells to MIC for Candida glabrata ATCC 2001; format: toxicity; details: read-out: Selectivity Index
[5] = Selectivity index, ratio of compound concentration showing <20 to <30% hemolysis in mouse RBC to MIC for Aspergillus nidulans ATCC 38163; format: toxicity; details: mouse red blood cells (RBC), read-out: Selectivity Index
[6] = Hemolytic activity in mouse RBC at […] ug/ml after 1 hr relative to control; format: ADME, cell-based, Erythrocyte; details: red blood cells (erythrocytes), read-out: Activity
[7] = Selectivity index, ratio of compound concentration showing <20 to <30% hemolysis in mouse RBC to MIC for Candida krusei ATCC 6258; format: toxicity; details: mouse red blood cells (RBC), read-out: Selectivity Index
[8] = Selectivity index, ratio of compound concentration showing <20 to <30% hemolysis in mouse RBC to MIC for Candida glabrata ATCC 2001; format: toxicity; details: mouse red blood cells (RBC), read-out: Selectivity Index
[9] = Selectivity index, ratio of compound concentration showing <20 to <30% hemolysis in mouse RBC to MIC for fluconazole/ITC-resistant Candida albicans ATCC 10231; format: toxicity; details: red blood cells (erythrocytes), read-out: Selectivity Index
[10] = Selectivity index, ratio of CC50 for human A549 cells to MIC for fluconazole/ITC-susceptible Candida albicans ATCC MYA-2310; format: toxicity; details: read-out: Selectivity Index
[11] = tested on: Candida albicans; test: Antifungal activity against fluconazole/ITC-susceptible Candida albicans ATCC MYA-2876 measured after 48 hrs by CLSI M27-A3 protocol based method; format: functional; details: ATCC MYA-2876, 48 h
[12] = Hemolytic activity in mouse RBC at 7.8 ug/ml after 1 hr relative to control; format: ADME, cell-based, Erythrocyte; details: red blood cells (erythrocytes), read-out: Activity
[13] = tested on: Aspergillus terreus; test: Antifungal activity against Aspergillus terreus ATCC MYA-3633 measured after 48 hrs by CLSI M38-A2 protocol based method; format: functional; details: ATCC MYA-3633, 48 h
[14] = tested on: Pichia kudriavzevii; test: Antifungal activity against Candida krusei ATCC 6258 measured after 48 hrs by CLSI M27-A3 protocol based method; format: functional; details: ATCC 6258, 48 h
[15] = tested on: A549; test: Cytotoxicity against human A549 cells after 24 hrs by resazurin based assay; format: cell-based; details: a549, 24 h
[16] = Hemolytic activity in mouse RBC at 1.95 ug/ml after 1 hr relative to control; format: ADME, cell-based, Erythrocyte; details: red blood cells (erythrocytes), read-out: Activity
[17] = tested on: Candida albicans; test: Antifungal activity against fluconazole/ITC-resistant Candida albicans ATCC MYA-1003 measured after 48 hrs by CLSI M27-A3 protocol based method; format: functional; details: ATCC MYA-1003, 48 h
[18] = tested on: Candida albicans; test: Antifungal activity against fluconazole/ITC-resistant Candida albicans ATCC 64124 measured after 48 hrs by CLSI M27-A3 protocol based method; format: functional; details: ATCC 64124, 48 h
[19] = tested on: Aspergillus flavus; test: Antifungal activity against Aspergillus flavus ATCC MYA-3631 measured after 48 hrs by CLSI M38-A2 protocol based method; format: functional; details: ATCC MYA-3631, 48 h
[20] = tested on: Candida parapsilosis; test: Antifungal activity against Candida parapsilosis ATCC 22019 measured after 48 hrs by CLSI M27-A3 protocol based method; format: functional; details: Lodderomyces parapsilosis, ATCC 22019, 48 h
[21] = Selectivity index, ratio of CC50 for human A549 cells to MIC for fluconazole/ITC-resistant Candida albicans ATCC 10231; format: toxicity; details: read-out: Selectivity Index
[22] = tested on: Aspergillus nidulans; test: Antifungal activity against Aspergillus nidulans ATCC 38163 measured after 48 hrs by CLSI M38-A2 protocol based method; format: functional; details: ATCC 38163, 48 h
[23] = Selectivity index, ratio of compound concentration showing <20 to <30% hemolysis in mouse RBC to MIC for fluconazole/ITC-resistant Candida albicans ATCC 90819; format: toxicity; details: red blood cells (erythrocytes), read-out: Selectivity Index
[24] = Selectivity index, ratio of compound concentration showing <20 to <30% hemolysis in mouse RBC to MIC for fluconazole/ITC-susceptible Candida albicans ATCC MYA-2876; format: toxicity; details: red blood cells (erythrocytes), read-out: Selectivity Index
[25] = tested on: Nakaseomyces glabratus; test: Antifungal activity against Candida glabrata ATCC 2001 measured after 48 hrs by CLSI M27-A3 protocol based method; format: functional; details: CBS 138, 48 h
[26] = Selectivity index, ratio of CC50 for human A549 cells to MIC for Candida krusei ATCC 6258; format: toxicity; details: read-out: Selectivity Index
[27] = Selectivity index, ratio of compound concentration showing <20 to <30% hemolysis in mouse RBC to MIC for fluconazole/ITC-susceptible Candida albicans ATCC MYA-2310; format: toxicity; details: mouse red blood cells (RBC), read-out: Selectivity Index
[28] = Selectivity index, ratio of CC50 for human A549 cells to MIC for fluconazole/ITC-resistant Candida albicans ATCC 90819; format: toxicity; details: read-out: Selectivity Index
[29] = Hemolytic activity in mouse RBC at […] after 1 hr relative to control; format: ADME, cell-based, Erythrocyte; details: red blood cells (erythrocytes), read-out: Activity; also: tested at 0.48 µg/mL
[30] = tested on: Candida albicans; test: Antifungal activity against fluconazole/ITC-resistant Candida albicans ATCC 10231 measured after 48 hrs by CLSI M27-A3 protocol based method; format: functional; details: ATCC 10231, 48 h
[31] = Selectivity index, ratio of compound concentration showing <20 to <30% hemolysis in mouse RBC to MIC for Aspergillus terreus ATCC MYA-3633; format: toxicity; details: mouse red blood cells (RBC), read-out: Selectivity Index
[32] = Selectivity index, ratio of CC50 for human A549 cells to MIC for fluconazole/ITC-resistant Candida albicans ATCC 64124; format: toxicity; details: read-out: Selectivity Index
[33] = Selectivity index, ratio of compound concentration showing <20 to <30% hemolysis in mouse RBC to MIC for Aspergillus flavus ATCC MYA-3631; format: toxicity; details: mouse red blood cells (RBC), read-out: Selectivity Index
[34] = tested on: Enterococcus; test: Antibacterial activity against vancomycin-resistant Enterococcus; format: functional, organism-based
[35] = tested on: Staphylococcus aureus; test: Antibacterial activity against methicillin-resistant Staphylococcus aureus; format: functional, organism-based
[36] = Selectivity index, ratio of CC50 for human A549 cells to MIC for fluconazole/ITC-susceptible Candida albicans ATCC MYA-2876; format: toxicity; details: read-out: Selectivity Index
[37] = Selectivity index, ratio of compound concentration showing <20 to <30% hemolysis in mouse RBC to MIC for Candida parapsilosis ATCC 22019; format: toxicity; details: mouse red blood cells (RBC), read-out: Selectivity Index
[38] = tested on: Candida albicans; test: Antifungal activity against fluconazole/ITC-resistant Candida albicans ATCC MYA-1237 measured after 48 hrs by CLSI M27-A3 protocol based method; format: functional; details: ATCC MYA-1237, 48 h
[39] = Selectivity index, ratio of CC50 for human A549 cells to MIC for Aspergillus nidulans ATCC 38163; format: toxicity; details: read-out: Selectivity Index
[40] = Hemolytic activity in mouse RBC at 31.3 ug/ml after 1 hr relative to control; format: ADME, cell-based, Erythrocyte; details: red blood cells (erythrocytes), read-out: Activity
[41] = Selectivity index, ratio of CC50 for human A549 cells to MIC for Aspergillus terreus ATCC MYA-3633; format: toxicity; details: read-out: Selectivity Index
[42] = tested on: BEAS-2B; test: Cytotoxicity against human BEAS2B cells after 24 hrs by resazurin based assay; format: cell-based
[43] = tested on: Listeria monocytogenes; test: Antibacterial activity against Listeria monocytogenes; format: functional, organism-based
[44] = Selectivity index, ratio of CC50 for human A549 cells to MIC for fluconazole/ITC-resistant Candida albicans ATCC MYA-1003; format: toxicity; details: read-out: Selectivity Index
[45] = Selectivity index, ratio of compound concentration showing <20 to <30% hemolysis in mouse RBC to MIC for fluconazole/ITC-resistant Candida albicans ATCC MYA-1003; format: toxicity; details: mouse red blood cells (RBC), read-out: Selectivity Index
[46] = Hemolytic activity in mouse RBC at 62.5 ug/ml after 1 hr relative to control; format: ADME, cell-based, Erythrocyte; details: red blood cells (erythrocytes), read-out: Activity
[47] = Selectivity index, ratio of CC50 for human A549 cells to MIC for fluconazole/ITC-resistant Candida albicans ATCC MYA-1237; format: toxicity; details: read-out: Selectivity Index
[48] = Selectivity index, ratio of compound concentration showing <20 to <30% hemolysis in mouse RBC to MIC for fluconazole/ITC-resistant Candida albicans ATCC 64124; format: toxicity; details: red blood cells (erythrocytes), read-out: Selectivity Index
[49] = tested on: Candida albicans; test: Antifungal activity against fluconazole/ITC-susceptible Candida albicans ATCC MYA-2310 measured after 48 hrs by CLSI M27-A3 protocol based method; format: functional; details: ATCC MYA-2310, 48 h
[50] = Hemolytic activity in mouse RBC at 3.9 ug/ml after 1 hr relative to control; format: ADME, cell-based, Erythrocyte; details: red blood cells (erythrocytes), read-out: Activity

SMILES: Fc1cccc(N/N=C/c2ccc(-c3ccc(/C=N/Nc4cccc(F)c4)cc3)cc2)c1
- selectivity ratio [1]: 1 to 32
- MIC [2]: > 31.3 µg/mL
- selectivity ratio [3]: 8
- selectivity ratio [4]: 1
- selectivity ratio [5]: 1 to 32
- hemolysis at 1 h, 15.6 ug/ml ([6]; at 15.6 µg/mL): 7.7%
- hemolysis at 1 h, 0.975 ug/ml [6]: 0.8%
- selectivity ratio [7]: 1 to 32
- selectivity ratio [8]: 1 to 32
- selectivity ratio [9]: 1 to 32
- selectivity ratio [10]: 1
- MIC [11]: > 31.3 µg/mL
- hemolysis at 1 h, 7.8 ug/ml [12]: 2.6%
- MIC [13]: > 31.3 µg/mL
- MIC [14]: 15.6 µg/mL (≈ 36.6 µM)
- CC50 [15]: > 31 µg/mL
- hemolysis at 1 h, 1.95 ug/ml [16]: 0%
- MIC [17]: > 31.3 µg/mL
- MIC [18]: > 31.3 µg/mL
- MIC [19]: 31.3 µg/mL (≈ 73.4 µM)
- MIC [20]: 3.9 µg/mL (≈ 9.14 µM)
- selectivity ratio [21]: 4
- MIC [22]: > 31.3 µg/mL
- selectivity ratio [23]: 1 to 32
- selectivity ratio [24]: 1 to 32
- MIC [25]: > 31.3 µg/mL
- selectivity ratio [26]: 2
- selectivity ratio [27]: 1 to 32
- selectivity ratio [28]: 1
- hemolysis at 1 h, […] [29]: 0.2%
- MIC [30]: 7.8 µg/mL (≈ 18.3 µM)
- selectivity ratio [31]: 1 to 32
- selectivity ratio [32]: 1
- selectivity ratio [33]: 1 to 32
- Activity [34]: inactive
- Activity [35]: inactive
- selectivity ratio [36]: 1
- selectivity ratio [37]: 1 to 32
- MIC [38]: > 31.3 µg/mL
- selectivity ratio [39]: 1
- hemolysis at 1 h, 31.3 ug/ml [40]: 10.3%
- selectivity ratio [41]: 1
- CC50 [42]: 16 µg/mL (≈ 37.5 µM)
- Activity [43]: inactive
- selectivity ratio [44]: 1
- selectivity ratio [45]: 1 to 32
- hemolysis at 1 h, 62.5 ug/ml [46]: 13.6%
- selectivity ratio [47]: 1
- selectivity ratio [48]: 1 to 32
- MIC [49]: > 31.3 µg/mL
- hemolysis at 1 h, 3.9 ug/ml [50]: 3.2%
